Measurements as given in US6737383B1, “Herbicidal oxadiazolidines” (priority 1999, dated 2004).

How the values were obtained:
[1] = tested on: blackgrass; assay: Test B pre/postemergence blackgrass; format: in vivo, Alopecurus myosuroides
How it was run: (§1)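 Response is a visual 0-to-10 score relative to untreated plants, where 0 means no effect and 10 means complete control, taken twelve to sixteen days after application. Treatments went onto soil at planting and onto foliage of 1- to 4-leaf plants, using a surfactant-containing non-phytotoxic solvent.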

[2] = tested on: surinam grass; assay: Test B pre/postemergence surinam grass; format: in vivo, Brachiaria decumbens
How it was run: as §1

[3] = tested on: cocklebur; assay: Test B pre/postemergence cocklebur; format: in vivo, Xanthium strumarium
How it was run: as §1

[4] = tested on: corn; assay: Test B pre/postemergence corn; format: in vivo, Zea mays
How it was run: as §1

[5] = tested on: crabgrass; assay: Test B pre/postemergence crabgrass; format: in vivo, Digitaria sanguinalis
How it was run: as §1

[6] = tested on: giant foxtail; assay: Test B pre/postemergence giant foxtail; format: in vivo, Setaria faberii
How it was run: as §1

[7] = tested on: morningglory; assay: Test B pre/postemergence morningglory; format: in vivo, Ipomoea hederacea
How it was run: as §1

[8] = tested on: pigweed; assay: Test B pre/postemergence pigweed; format: in vivo, Amaranthus retroflexus
How it was run: as §1

[9] = tested on: rape; assay: Test B pre/postemergence rape; format: in vivo, Brassica napus
How it was run: as §1

[10] = tested on: sugar beet; assay: Test B pre/postemergence sugar beet; format: in vivo, Beta vulgaris
How it was run: as §1

[11] = tested on: velvetleaf; assay: Test B pre/postemergence velvetleaf; format: in vivo, Abutilon theophrasti
How it was run: as §1

[12] = tested on: wheat; assay: Test B pre/postemergence wheat; format: in vivo, Triticum aestivum
How it was run: as §1

[13] = tested on: purple nutsedge; assay: Test B pre/postemergence purple nutsedge; format: in vivo, Cyperus rotundus
How it was run: as §1

[14] = tested on: rice; assay: Test B flood test rice; format: in vivo, Oryza sativa
How it was run: (§2)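 Flood test on plants grown to the 2-leaf stage; treated plants kept in greenhouse twelve to sixteen days, then visually rated against controls on a 0 (no effect) to 10 (complete control) scale.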

[15] = tested on: smallflower flatsedge; assay: Test B flood test smallflower flatsedge; format: in vivo, Cyperus difformis
How it was run: as §2

[16] = tested on: duck salad; assay: Test B flood test duck salad; format: in vivo, Heteranthera limosa
How it was run: as §2

[17] = Postemergence, Rate 62 g/ha, scale of 0 to 10, 0 is no effect, 10 is complete control
[18] = Postemergence, Rate 125 g/ha, scale 0 to 10, 0 is no effect, 10 is complete control
[19] = Postemergence, Rate 500 g/ha, scale 0 to 10, 0 is no effect, 10 is complete control
[20] = Preemergence, Rate 62 g/ha, scale of 0 to 10 where 0 is no effect and 10 is complete control
[21] = Preemergence, Rate 125 g/ha, scale 0 to 10, 0 is no effect, 10 is complete control
[22] = Preemergence, Rate 500 g/ha, scale of 0 to 10 where 0 is no effect and 10 is complete control
[23] = Rate 250 g/ha, Postemergence, scale of 0 to 10 where 0 is no effect and 10 is complete control
[24] = Rate 62 g/ha, flood test species, Pre-emergence, visual evaluation after twelve to sixteen days
[25] = Rate 125 g/ha, under heading Pre-emergence, flood test species, visual evaluation after twelve to sixteen days
[26] = Rate 250 g/ha, Pre-emergence (flood test species), scale 0 to 10, 0 is no effect, 10 is complete control
[27] = Rate 500 g/ha, Pre-emergence section of Table B, 0 to 10 scale (0 no effect, 10 complete control)

## CC(C)N(C(=O)n1oc(=O)n(CCC2OCCCO2)c1=O)c1ccc(Cl)cc1 [Compound 532]
[1]; [17]
  Blackgrass plant response rating: 0
[1]; [18]
  Blackgrass plant response rating: 0
[1]; [19]
  Plant response rating, Blackgrass: 0
[1]; [20]
  Plant response rating, Blackgrass: 0
[1]; [21]
  Blackgrass plant response rating: 0
[1]; Preemergence, Rate 250 g/ha
  Blackgrass plant response rating (0 to 10 scale): 0
[1]; [22]
  Blackgrass plant response rating: 0
[1]; [23]
  Plant response rating, Blackgrass: 0
[2]; [17]
  B. signalgrass plant response rating: 0
[2]; [18]
  B. signalgrass plant response rating: 0
[2]; [19]
  Plant response rating, B. signalgrass: 0
[2]; [20]
  Plant response rating, B. signalgrass: 0
[2]; [21]
  B. signalgrass plant response rating: 0
[2]; Preemergence, Rate 250 g/ha
  B. signalgrass plant response rating (0 to 10 scale, 0 is no effect, 10 is complete control): 0
[2]; [22]
  B. signalgrass plant response rating: 0
[2]; [23]
  Plant response rating, B. signalgrass: 0
[3]; [17]
  Cocklebur plant response rating: 0
[3]; [18]
  Cocklebur plant response rating: 0
[3]; [19]
  Plant response rating, Cocklebur: 4
[3]; [20]
  Plant response rating, Cocklebur: 0
[3]; [21]
  Cocklebur plant response rating: 0
[3]; Preemergence, Rate 250 g/ha
  Cocklebur plant response rating (0 to 10 scale): 0
[3]; [22]
  Cocklebur plant response rating: 0
[3]; [23]
  Plant response rating, Cocklebur: 2
[4]; [17]
  Corn plant response rating: 2
[4]; [18]
  Corn plant response rating: 0
[4]; [19]
  Plant response rating, Corn: 2
[4]; [20]
  Plant response rating, Corn: 0
[4]; [21]
  Corn plant response rating: 0
[4]; Preemergence, Rate 250 g/ha
  Corn plant response rating (0 to 10 scale): 0
[4]; [22]
  Corn plant response rating: 0
[4]; [23]
  Plant response rating, Corn: 0
[5]; [17]
  Crabgrass plant response rating: 4
[5]; [18]
  Crabgrass plant response rating: 4
[5]; [19]
  Plant response rating, Crabgrass: 9
[5]; [20]
  Plant response rating, Crabgrass: 9
[5]; [21]
  Crabgrass plant response rating: 9
[5]; Preemergence, Rate 250 g/ha
  Crabgrass plant response rating (0 to 10 scale): 10
[5]; [22]
  Crabgrass plant response rating: 10
[5]; [23]
  Plant response rating, Crabgrass: 7
[6]; [17]
  Giant foxtail plant response rating: 0
[6]; [18]
  Giant foxtail plant response rating: 4
[6]; [19]
  Plant response rating, Giant foxtail: 8
[6]; [20]
  Plant response rating, Giant foxtail: 10
[6]; [21]
  Giant foxtail plant response rating: 10
[6]; Preemergence, Rate 250 g/ha
  Giant foxtail plant response rating (0 to 10 scale): 10
[6]; [22]
  Giant foxtail plant response rating: 10
[6]; [23]
  Plant response rating, Giant foxtail: 4
[7]; [17]
  Morningglory plant response rating: 0
[7]; [18]
  Morningglory plant response rating: 3
[7]; [19]
  Plant response rating, Morningglory: 5
[7]; [20]
  Plant response rating, Morningglory: 0
[7]; [21]
  Morningglory plant response rating: 0
[7]; Preemergence, Rate 250 g/ha
  Morningglory plant response rating (0 to 10 scale): 0
[7]; [22]
  Morningglory plant response rating: 0
[7]; [23]
  Plant response rating, Morningglory: 5
[8]; [17]
  Redroot pigweed plant response rating: 0
[8]; [18]
  Redroot pigweed plant response rating: 0
[8]; [19]
  Plant response rating, Redroot pigweed: 2
[8]; [20]
  Plant response rating, Redroot pigweed: 0
[8]; [21]
  Redroot pigweed plant response rating: 0
[8]; Preemergence, Rate 250 g/ha
  Redroot pigweed plant response rating (0 to 10 scale): 0
[8]; [22]
  Redroot pigweed plant response rating: 0
[8]; [23]
  Plant response rating, Redroot pigweed: 0
[9]; [17]
  Rape plant response rating: 0
[9]; [18]
  Rape plant response rating: 0
[9]; [19]
  Plant response rating, Rape: 2
[9]; [20]
  Plant response rating, Rape: 0
[9]; [21]
  Rape plant response rating: 0
[9]; Preemergence, Rate 250 g/ha
  Rape plant response rating (0 to 10 scale): 0
[9]; [22]
  Rape plant response rating: 0
[9]; [23]
  Plant response rating, Rape: 2
[10]; [17]
  Sugarbeets plant response rating: 0
[10]; [18]
  Sugarbeets plant response rating: 0
[10]; [19]
  Plant response rating, Sugarbeets: 0
[10]; [20]
  Plant response rating, Sugarbeets: 0
[10]; [21]
  Sugarbeets plant response rating: 2
[10]; Preemergence, Rate 250 g/ha
  Sugarbeets plant response rating (0 to 10 scale): 2
[10]; [22]
  Sugarbeets plant response rating: 3
[10]; [23]
  Plant response rating, Sugarbeets: 0
[11]; [17]
  Velvetleaf plant response rating: 0
[11]; [18]
  Velvetleaf plant response rating: 0
[11]; [19]
  Plant response rating, Velvetleaf: 2
[11]; [20]
  Plant response rating, Velvetleaf: 0
[11]; [21]
  Velvetleaf plant response rating: 0
[11]; Preemergence, Rate 250 g/ha
  Velvetleaf plant response rating (0 to 10 scale): 0
[11]; [22]
  Velvetleaf plant response rating: 4
[11]; [23]
  Plant response rating, Velvetleaf: 2
[12]; [17]
  Wheat plant response rating: 0
[12]; [18]
  Wheat plant response rating: 0
[12]; [19]
  Plant response rating, Wheat: 0
[12]; [20]
  Plant response rating, Wheat: 0
[12]; [21]
  Wheat plant response rating: 0
[12]; Preemergence, Rate 250 g/ha
  Wheat plant response rating (0 to 10 scale): 0
[12]; [22]
  Wheat plant response rating: 0
[12]; [23]
  Plant response rating, Wheat: 0
[13]; [17]
  Nutsedge plant response rating: 4
[13]; [18]
  Nutsedge plant response rating: 0
[13]; [20]
  Plant response rating, Nutsedge: 0
[13]; [21]
  Nutsedge plant response rating: 0
[13]; Preemergence, Rate 250 g/ha
  Nutsedge plant response rating (0 to 10 scale): 0
[13]; [22]
  Nutsedge plant response rating: 0
[14]; [24]
  Plant response rating, Rice (0 to 10 scale, 0 is no effect, 10 is complete control): 0
[14]; [25]
  Rice plant response rating (0 to 10 scale, 0 is no effect, 10 is complete control): 1
[14]; [26]
  Rice plant response rating: 9
[14]; [27]
  Rice plant response rating: 8
[15]; [24]
  Plant response rating, S. Flatsedge (0 to 10 scale, 0 is no effect, 10 is complete control): 9
[15]; [25]
  S. Flatsedge plant response rating (0 to 10 scale, 0 is no effect, 10 is complete control): 8
[15]; [26]
  S. Flatsedge plant response rating: 9
[15]; [27]
  S. Flatsedge plant response rating: 9
[16]; [24]
  Plant response rating, Ducksalad (0 to 10 scale, 0 is no effect, 10 is complete control): 8
[16]; [25]
  Ducksalad plant response rating (0 to 10 scale, 0 is no effect, 10 is complete control): 8
[16]; [26]
  Ducksalad plant response rating: 9
[16]; [27]
  Ducksalad plant response rating: 9
